Data taken from ChEMBL document CHEMBL1201862, “PubChem BioAssay data set” (2004).
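Exposure lasted 48 hours, with cells grown in 96-well plates and compounds tested at five concentrations. GI50 marks 50% less growth.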 Activity calls are given as the source filed them. Rule as the data show it: active = GI50 up to about 1.1 µM and inactive = higher.

Experiments:
Test in all cases: NCI tumour cell line growth inhibition, 48 h
SNB-78 = tested on: SNB-78
Malme-3M = tested on: Malme-3M
SN12C = tested on: SN12C
NCI-H522 = tested on: NCI-H522
OVCAR-3 = tested on: OVCAR-3
SR = tested on: SR
MCF7 = tested on: MCF7
CAKI-1 = tested on: CAKI-1
U-251 = tested on: U-251
K562 = tested on: K562
HL-60 = tested on: HL-60
NCI-H23 = tested on: NCI-H23
TK-10 = tested on: TK-10
HOP-92 = tested on: HOP-92
ACHN = tested on: ACHN
NCI-H226 = tested on: NCI-H226
SK-MEL-28 = tested on: SK-MEL-28
BT-549 = tested on: BT-549
DU-145 = tested on: DU-145
MDA-N = tested on: MDA-N

Row | Compound | GI50 (SNB-78) | GI50 (Malme-3M) | GI50 (SN12C) | GI50 (NCI-H522) | GI50 (OVCAR-3) | GI50 (SR) | GI50 (MCF7) | GI50 (CAKI-1) | GI50 (U-251) | GI50 (K562) | GI50 (HL-60) | GI50 (NCI-H23) | GI50 (TK-10) | GI50 (HOP-92) | GI50 (ACHN) | GI50 (NCI-H226) | GI50 (SK-MEL-28) | GI50 (BT-549) | GI50 (DU-145) | GI50 (MDA-N)
1 | O=NN(CCCl)C(=O)NC1CCC(CC2CCC(NC(=O)N(CCCl)N=O)CC2)CC1 (stereo not drawn) | 29.5 µM (inactive) | 32.3 µM (inactive) | 28.4 µM (inactive) | 1.53 µM (inactive) | 27.8 µM (inactive) | 17.9 µM (inactive) | 0.316 µM (active) | 31.3 µM (inactive) | 1.24 µM (inactive) | 2.26 µM (inactive) | 16.4 µM (inactive) | 34.1 µM (inactive) | 32.5 µM (inactive) | 26.2 µM (inactive) | 38.1 µM (inactive) | 79.3 µM (inactive) | > 65.8 µM (inactive) |  |  | 
2 | O=C1CCCn2c3ccccc3c3ccnc1c32 | 44.8 µM (inactive) | 35.1 µM (inactive) | 40.8 µM (inactive) | 34.8 µM (inactive) | 37.7 µM (inactive) |  | 36.1 µM (inactive) | 17.3 µM (inactive) | 40.8 µM (inactive) | 40.5 µM (inactive) | 6.89 µM (inactive) | 50 µM (inactive) |  | > 62.8 µM (inactive) |  | 19.4 µM (inactive) | 51.6 µM (inactive) |  |  | 
3 | CCOC(=O)/C(=C/c1ccccn1)C(=O)c1ccccc1 | 17 µM (inactive) | 13.5 µM (inactive) | 13.7 µM (inactive) | 5.47 µM (inactive) | 14.1 µM (inactive) | 3.32 µM (inactive) |  | 14.5 µM (inactive) | 14.3 µM (inactive) | 5.19 µM (inactive) | 2.19 µM (inactive) | 15.8 µM (inactive) | 17.5 µM (inactive) | 7.66 µM (inactive) | 20.4 µM (inactive) | 15.9 µM (inactive) | 11.8 µM (inactive) |  |  | 
4 | CC(=O)NC1COC(COC(=O)CCCCCCCCCCNC(=O)c2ccc([N+](=O)[O-])c3c(=O)c4ccccc4[nH]c23)C(O)C1OC(C)C(=O)NC(C(=O)NC(CCC(N)=O)C(=O)OCc1ccccc1)C(C)C (stereo not drawn) | 10.2 µM (inactive) | 38.6 µM (inactive) | 32.6 µM (inactive) | 12.3 µM (inactive) | 3.57 µM (inactive) | 7.08 µM (inactive) | 6.61 µM (inactive) | 15.2 µM (inactive) | 11.5 µM (inactive) | 9.48 µM (inactive) | 0.445 µM (active) | 11.4 µM (inactive) | 18.5 µM (inactive) | 8.05 µM (inactive) | 14.8 µM (inactive) | 44.9 µM (inactive) | 11.9 µM (inactive) | 48.8 µM (inactive) | 5.79 µM (inactive) | 0.966 µM (active)
5 | Cc1c2ccc3ccccc3c2c[n+]2ccccc12 | 28.8 µM (inactive) | 1.56 µM (inactive) | 2.94 µM (inactive) | 3.41 µM (inactive) | 5.85 µM (inactive) | 2.96 µM (inactive) | 10.4 µM (inactive) | 53.6 µM (inactive) | 1.66 µM (inactive) | 10.7 µM (inactive) | 33.4 µM (inactive) | 4.91 µM (inactive) | 35.7 µM (inactive) | 13.5 µM (inactive) | 56.5 µM (inactive) | 4.67 µM (inactive) | 9.55 µM (inactive) | 2.96 µM (inactive) | 11.4 µM (inactive) | 6.71 µM (inactive)
6 | Cc1cccc(/N=C2\NC(=O)C(CC(=O)Nc3ccc(C)cc3C)S2)c1 (stereo not drawn) | > 100 µM (inactive) | > 100 µM (inactive) | > 100 µM (inactive) | 64.3 µM (inactive) | 69 µM (inactive) | 52.6 µM (inactive) |  | 60.4 µM (inactive) | > 100 µM (inactive) | 65.8 µM (inactive) | > 100 µM (inactive) | 57 µM (inactive) | > 100 µM (inactive) | 55.7 µM (inactive) | > 100 µM (inactive) | 84.3 µM (inactive) | > 100 µM (inactive) |  |  | 
7 | O=P1(Oc2ccc(Cl)cc2Cl)Oc2ccc3ccccc3c2-c2c(ccc3ccccc23)O1 | 32.4 µM (inactive) | 21.9 µM (inactive) | 30.8 µM (inactive) | 19.5 µM (inactive) | 22.5 µM (inactive) |  | 33.7 µM (inactive) | 21 µM (inactive) | 21.1 µM (inactive) | 31.4 µM (inactive) | 22.9 µM (inactive) | 29.8 µM (inactive) |  | 22.4 µM (inactive) |  | 23.3 µM (inactive) | 32.5 µM (inactive) |  |  | 
8 | CO/C1=C\C(C)=C\C(C)C(O)C(C)C/C(C)=C/C=C/C(OC)C(C(C)C(O)C(C)C2(O)CC(O)C(C)C(C(C)C)O2)OC1=O (stereo not drawn) | 10.2 µM (inactive) | 0.0119 µM (active) | 0.01 µM (active) | 0.00112 µM (active) | 0.00434 µM (active) | 9.08e-05 µM (active) | 0.00371 µM (active) | 0.00205 µM (active) | 0.00706 µM (active) | 0.00231 µM (active) | 0.000134 µM (active) | 0.00267 µM (active) | 14.5 µM (inactive) | 0.00041 µM (active) | 0.0148 µM (active) | 0.0134 µM (active) | 0.0661 µM (active) |  | 0.000873 µM (active) | 0.00182 µM (active)
9 | CC(=O)OC(CCC1(C)OC1COc1ccc(CCNC(=O)C=C(C)C)cc1)C(C)(C)OC(C)=O (stereo not drawn) | 24.5 µM (inactive) | 23.5 µM (inactive) | > 100 µM (inactive) | 19.5 µM (inactive) | 16.8 µM (inactive) | 24.9 µM (inactive) |  | > 100 µM (inactive) | > 100 µM (inactive) |  | > 32.1 µM (inactive) | 0.647 µM (active) | > 100 µM (inactive) | > 100 µM (inactive) | 3.61 µM (inactive) | > 57 µM (inactive) | 28.2 µM (inactive) | 0.377 µM (active) | > 100 µM (inactive) | 13.3 µM (inactive)
10 | COc1cccc2c1C(=O)c1c(O)c3c(c(O)c1C2=O)C[C@@](O)(C(=O)CO)CC3OC1CC(NCCCCC(OC(C)=O)OC(C)=O)C(O)C(C)O1 (stereo partly drawn) | 0.00209 µM (active) | 0.0048 µM (active) | 0.00348 µM (active) | 0.0015 µM (active) | 0.00349 µM (active) | 0.000337 µM (active) |  | 0.00251 µM (active) | 0.00173 µM (active) | 0.00197 µM (active) | 0.00202 µM (active) |  | 0.00322 µM (active) | 0.0032 µM (active) | 0.00243 µM (active) | 0.00227 µM (active) | 0.00335 µM (active) |  |  | 
11 | COc1ccc2[nH]c3c(C)c4cc[n+](C)cc4c(C)c3c2c1 | 0.571 µM (active) | 1.06 µM (active) | 0.116 µM (active) | 0.562 µM (active) | 3.09 µM (inactive) |  | 2.39 µM (inactive) |  | 0.191 µM (active) |  | 22 µM (inactive) | 0.649 µM (active) |  | 3.21 µM (inactive) | 14 µM (inactive) | 0.301 µM (active) | 2.18 µM (inactive) | 1.87 µM (inactive) |  | 
